Reference: ChEMBL document CHEMBL4422615, “Novel non-xanthine antagonist of the A2B adenosine receptor: From HTS hit to lead structure” (Eur J Med Chem, 2019)

Key:
Adenosine receptor A2b = target: T1, Adenosine receptor A2b (Homo sapiens, UniProt P29275); test: Displacement of [3H]DPCPX from human A2B adenosine receptor expressed in HEK293 cell membranes after 60 mins by radioligand displacement assay
T1 sequence (P29275 whole entry): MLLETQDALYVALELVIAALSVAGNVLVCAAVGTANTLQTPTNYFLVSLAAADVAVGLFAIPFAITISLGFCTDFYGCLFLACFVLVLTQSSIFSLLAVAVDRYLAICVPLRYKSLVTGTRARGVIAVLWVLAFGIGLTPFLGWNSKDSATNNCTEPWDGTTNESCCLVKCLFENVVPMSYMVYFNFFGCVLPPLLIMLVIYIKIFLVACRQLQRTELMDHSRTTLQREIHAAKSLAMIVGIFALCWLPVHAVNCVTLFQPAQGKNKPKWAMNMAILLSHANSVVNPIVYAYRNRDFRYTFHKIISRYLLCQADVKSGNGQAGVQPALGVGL

Homo sapiens [1] = organism: Homo sapiens; test: Selectivity index, ratio of IC50 for human A1 adenosine receptor expressed in CHO cell membranes to IC50 for human A2B adenosine receptor expressed in HEK293 cell membranes; assay type: cell-based
Homo sapiens [2] = organism: Homo sapiens; test: Selectivity index, ratio of IC50 for human A3 adenosine receptor expressed in HEK293 cell membranes to IC50 for human A2B adenosine receptor expressed in HEK293 cell membranes; assay type: cell-based
[3] = Intrinsic clearance in rat hepatocytes by MS/MS analysis; assay type: ADME, cell-based, Hepatocyte; conditions: read-out: CLH (converted)
Homo sapiens [4] = organism: Homo sapiens; test: Selectivity index, ratio of IC50 for human A2A adenosine receptor expressed in HEK293 cell membranes to IC50 for human A2B adenosine receptor expressed in HEK293 cell membranes; assay type: cell-based

SMILES | IC50 (Adenosine receptor A2b) [nM] | Ratio IC50 (Homo sapiens [1]) | Ratio IC50 (Homo sapiens [2]) | predicted hepatic clearance [3] [mL/min/kg] | Ratio IC50 (Homo sapiens [4])
Cc1csc2[nH]c(=O)n(CCc3ccccc3)c(=O)c12 | 480 | 6 | 14 | 58.3 | –
COCCn1c(=O)n(CCc2ccccc2)c(=O)c2c(C)c(CN3CCOCC3)sc21 | 760 | 1 | 9 | – | 7
COCCn1c(=O)n(CC(C)(C)C)c(=O)c2c(C)csc21 | 1600 | 7 | 4 | – | 7
COCCn1c(=O)n(CCc2ccccc2)c(=O)c2c(C)c(CO)sc21 | 150 | 11 | 43 | – | 40
CCN(CC(C)(C)O)C(=O)c1sc2c(c1C)c(=O)n(CC)c(=O)n2CCC(F)(F)F | 39 | 11 | 170 | 35 | 19
COCCn1c(=O)n(CCc2ccccc2)c(=O)c2c(C)c(COC3CCCC3)sc21 | 250 | 4 | 27 | – | 7
Cc1csc2c1c(=O)n(CCc1ccccc1)c(=O)n2CC1CCCO1 (stereo in doubt; 7) | – | 46 | 37 | – | 62
CCn1c(=O)c2c(C)c(C(=O)N3CC(O)C3)sc2n(CCC(F)(F)F)c1=O | 200 | 8 | 32 | 6.83 to 10 | 7
COCCn1c(=O)n(CCc2ccccc2)c(=O)c2c3c(sc21)CCCC3 | 490 | 3 | 13 | – | –
COCCn1c(=O)n(CC(F)(F)c2ccccc2)c(=O)c2c(C)csc21 | 440 | 9 | – | 66.7 | 25
CCn1c(=O)c2c(C)c(C)sc2n(CCOC)c1=O | 440 | 9 | 15 | – | 8
COCCn1c(=O)n(Cc2ccccc2)c(=O)c2c(C)csc21 | > 10000 | 1 | 1 | – | 1
CCN(CC)C(=O)c1sc2c(c1C)c(=O)n(CCc1ccccc1)c(=O)n2CCOC | 42 | 23 | 160 | 66.7 | 3
Cc1csc2c1c(=O)n(CCc1ccccc1)c(=O)n2CC1CCCO1 (racemic) | – | 13 | 13 | – | 21
Cc1csc2c1c(=O)n(CCc1ccccc1)c(=O)n2Cc1cnc[nH]1 | 1300 | 3 | 5 | 46.7 | 8
COCCn1c(=O)n(CCc2ccccc2)c(=O)c2ccsc21 | 4700 | 2 | 1 | – | 2
Cc1csc2c1c(=O)n(CCc1ccccc1)c(=O)n2Cc1nc2cc(S(N)(=O)=O)ccc2o1 | 1100 | 0.83 | 6 | – | 2
Cc1csc2c1c(=O)n(CCc1cccnc1)c(=O)n2CCC(F)(F)F | 55 | 40 | 120 | 66.7 | 21
COCCn1c(=O)n(CCC2CCOCC2)c(=O)c2c(C)csc21 | > 10000 | 1 | 1 | – | 1
COCCn1c(=O)n(CCc2ccccc2)c(=O)c2c(C)c(C(=O)N(C)OC)sc21 | 390 | 9 | 17 | – | 4
COCCn1c(=O)n(CCc2ccccc2)c(=O)c2c(C)c(C(=O)N3CCCC3)sc21 | 260 | – | – | – | –
COCCn1c(=O)n(CCc2ccccc2F)c(=O)c2c(C)csc21 | 210 | – | – | – | –
COCCn1c(=O)[nH]c(=O)c2c(C)csc21 | > 10000 | 1 | 0.61 to 1 | 31.7 | 1
COCCn1c(=O)n(CCc2ccccc2)c(=O)c2c(C)c(Cc3ccccc3)sc21 | 540 | 0.19 | – | – | 4
CCn1c(=O)c2c3c(sc2n(CCOC)c1=O)CCC3 | 220 | 18 | 30 | – | 11
Cc1csc2c1c(=O)n(CCc1ccccc1F)c(=O)n2CCC(F)(F)F | 73 | 36 | 91 | 68.3 | 86
COCCn1c(=O)n(CCc2ccccc2)c(=O)c2c(C)c(C(=O)O)sc21 | 2100 | 5 | – | 55 | 5

SMILES | IC50 (Adenosine receptor A2b) [nM] | Ratio IC50 (Homo sapiens [1]) | Ratio IC50 (Homo sapiens [2]) | predicted hepatic clearance [3] [mL/min/kg] | Ratio IC50 (Homo sapiens [4])
Cc1csc2c1c(=O)n(CCc1ccccc1)c(=O)n2CCC(F)(F)F | 56 | 25 | 120 | 66.7 | 81
COCCn1c(=O)n(CCc2ccccc2)c(=O)c2c(C)c(Cl)sc21 | 3300 | 3 | – | – | 3
COCCn1c(=O)n(CC=C(F)F)c(=O)c2c(C)csc21 | 4900 | 2 | – | – | 2
COCCn1c(=O)n(CCc2ccccc2)c(=O)c2c3c(sc21)CCC3 | 97 | 16 | 69 | – | –
Cc1csc2c1c(=O)n(CCc1ccccc1)c(=O)n2Cc1ncc[nH]1 | 130 | 11 | 51 | – | 35
Cc1csc2c1c(=O)n(CCc1ccccc1)c(=O)n2CCF | 135 | – | – | – | –
CCn1c(=O)c2c(C)csc2n(CCOC)c1=O | 640 | 6 | 10 | – | 11
COCCn1c(=O)n(CC2(c3ccccc3)CC2)c(=O)c2c(C)csc21 | 1500 | 1 | – | – | 7
COCCn1c(=O)n(CCc2ccccc2)c(=O)c2c(C)c(C(F)(F)c3ccccc3)sc21 | 2800 | 0.36 | 2 | – | 3
COCCn1c(=O)n(CCc2ccccc2)c(=O)c2c(C)c(-c3ccccc3)sc21 | 4900 | 0.65 | 1 | – | 2
COCCn1c(=O)n(CCc2ccccc2)c(=O)c2c(C)c(Cc3nc[nH]c3C)sc21 | 2.4 | 93 | 2800 | 66.7 | 180
COCCn1c(=O)n(CCc2ccccc2)c(=O)c2c(C)c(C(=O)C3CC3)sc21 | 790 | 0.57 | 8 | – | 1
COCCn1c(=O)n(CCc2ccccc2)c(=O)c2c(C)csc21 | 300 | 9 | 22 | 66.7 | 37
Cc1csc2c1c(=O)n(CCc1ccccc1)c(=O)n2CCc1ccc(S(N)(=O)=O)cc1 | 1700 | 2 | 4 | – | 6
COCCn1c(=O)n(CCN2CCS(=O)(=O)CC2)c(=O)c2c(C)csc21 | > 10000 | 1 | 1 | – | 1
Cc1[nH]cnc1Cn1c(=O)n(CCc2ccccc2)c(=O)c2c(C)csc21 | 3400 | 3 | 2 | 56.7 | 3
COCCn1c(=O)n(CCc2ccccc2)c(=O)c2c(C)c(C)sc21 | 200 | 12 | 33 | – | –
Cc1csc2c1c(=O)n(CCc1ccccc1)c(=O)n2Cc1nccn1C | 145 | 4 | 46 | – | 21
COCCn1c(=O)n(CCc2ccccc2)c(=O)c2c(C)c(C(=O)c3cn(C)cn3)sc21 | 190 | 4 | 35 | – | 9
Cc1csc2c1c(=O)n(CCc1ccccc1)c(=O)n2CC(=O)Nc1cc(Cl)ccc1C(=O)O | > 10000 | – | – | – | –
COCCn1c(=O)n(CCc2ccccc2)c(=O)c2c(C)c(C(=O)c3ccccc3)sc21 | 2300 | 0.6 | – | – | 3
CCOC(=O)c1sc2c(c1C)c(=O)n(CCc1ccccc1)c(=O)n2CCOC | 1700 | 2 | 4 | – | 6
COCCn1c(=O)n(CCc2ccccc2)c(=O)c2c(C)c(C(=O)N3CC(O)C3)sc21 | 200 | – | – | 61.7 | –
CCn1c(=O)c2c3c(sc2n(CCOC)c1=O)CCCC3 | 390 | 5 | 17 | – | 3
COCCn1c(=O)n(CCc2ccccc2)c(=O)c2c(C)c(CN3CCCC3)sc21 | 200 | – | – | 61.7 | –
COCCn1c(=O)n(CCc2ccccc2)c(=O)c2c(C)c(C(C)(O)c3cncn3C)sc21 (stereo not drawn) | 1200 | 2 | 6 | – | 3
Cc1csc2c1c(=O)n(CCc1ccccc1)c(=O)n2CC#N | 130 | – | – | – | –
